The text below walks through data of PubChem BioAssay AID330 (DTP/NCI, 2004).

This assay relates to P388 leukemia ip, CD2F1 mice, survival T/C. The experiment in a line: NCI In Vivo Anticancer Drug Screen. Data for tumor model P388 Leukemia (intraperitoneal) in CD2F1 (CDF1) mice. To be noted: endpoint: median survival time, higher = longer survival. In outline:
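Mice carrying the transplanted tumor received test compound or vehicle. Survival was recorded in each group, and the value is the treated-group measurement divided by that of the vehicle-treated control group.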

Where [1] appears, read: dose: 50.0 mg/kg/injection, schedule: Q01DX005 (ip), vehicle: Klucel (hydroxypropylcellulose) (HPC).
Where [2] appears, read: dose: 100.0 mg/kg/injection, schedule: Q01DX005 (ip), vehicle: Klucel (hydroxypropylcellulose) (HPC).
Setting [3] is: dose: 200.0 mg/kg/injection, schedule: Q01DX005 (ip), vehicle: Klucel (hydroxypropylcellulose) (HPC).
[4] abbreviates: dose: 50.0 mg/kg/injection, schedule: Q01DX005 (ip), vehicle: saline with Tween-80.
[5] abbreviates: dose: 12.5 mg/kg/injection, schedule: Q01DX005 (ip), vehicle: Klucel (hydroxypropylcellulose) (HPC).
[6] abbreviates: dose: 25.0 mg/kg/injection, schedule: Q01DX005 (ip), vehicle: Klucel (hydroxypropylcellulose) (HPC).
Setting [7] is: dose: 3.12 mg/kg/injection, schedule: Q01DX005 (ip), vehicle: Klucel (hydroxypropylcellulose) (HPC).
Setting [8] is: dose: 50.0 mg/kg/injection, schedule: Q01DX009 (ip), vehicle: saline.
Setting [9] is: dose: 200.0 mg/kg/injection, schedule: Q01DX009 (ip), vehicle: saline.

Structures are written as SMILES. “And” between values parts separate entries of the source, which are not always exact repeats. Equal values may be shown once. Toxic doses and inconclusive results are not listed.

As to `c1ccc([S][Pb]([c]2ccccc2)([c]2ccccc2)[c]2ccccc2)cc1`, the T/C is 96 % of control (dose: 6.25 mg/kg/injection, schedule: Q01DX001 (ip), vehicle: Klucel (hydroxypropylcellulose) (HPC)); 122 % of control (dose: 12.5 mg/kg/injection, schedule: Q01DX001 (ip), vehicle: Klucel (hydroxypropylcellulose) (HPC)); 114 % of control (dose: 25.0 mg/kg/injection, schedule: Q01DX001 (ip), vehicle: Klucel (hydroxypropylcellulose) (HPC)).

Take `CC(C)CC(C(=O)O)N1C(=O)c2ccccc2C1=O` (stereo not drawn): the T/C under setting [1] was 98 % of control, the T/C under setting [2] was 100 % of control and the T/C under setting [3] is 95 % of control.

On to `CNC(=O)OCc1c(COC(=O)NC)c(-c2ccc(C(C)(C)C)cc2)n(C)c1C`, for which the T/C reads like this: (dose: 6.25 mg/kg/injection, schedule: Q01DX009 (ip), vehicle: distilled water + Tween-80) 150 % of control and 152 % of control; (dose: 12.5 mg/kg/injection, schedule: Q01DX009 (ip), vehicle: distilled water + Tween-80) 155 % of control; (dose: 25.0 mg/kg/injection, schedule: Q01DX009 (ip), vehicle: distilled water + Tween-80) 150 % of control and 158 % of control; (dose: 50.0 mg/kg/injection, schedule: Q01DX009 (ip), vehicle: distilled water + Tween-80) 97 % of control.

In the case of `CC(C)=CC(=O)Sc1ccccc1`, the T/C runs as follows: (dose: 12.5 mg/kg/injection, schedule: Q01DX005 (ip), vehicle: saline with Tween-80) 101 % of control; (dose: 25.0 mg/kg/injection, schedule: Q01DX005 (ip), vehicle: saline with Tween-80) 94 % of control; under setting [4], 102 % of control and 104 % of control.

As for `Cc1c(C)n(-c2ccccc2)c2nc(C)n(-c3ccccc3)c(=N)c12`, the T/C was 101 % of control under setting [1] and 100 % of control under setting [2].

Take `CC1(C)CC(=O)C(=N/O)/C(=N\NC(N)=S)C1`: the T/C by setting is: under setting [4], 102 % of control; (dose: 100.0 mg/kg/injection, schedule: Q01DX005 (ip), vehicle: saline with Tween-80) 103 % of control; (dose: 200.0 mg/kg/injection, schedule: Q01DX005 (ip), vehicle: saline with Tween-80) 110 % of control.

As for `Cc1nc2ccccc2[n]1[Sn]([CH3])([CH3])[n]1c(C)nc2ccccc21`, the T/C by setting is: under setting [5], 118 % of control; under setting [6], 118 % of control; under setting [1], 112 % of control and 118 % of control.

For the compound `COc1cc(C)c(C2NC(=O)c3ccccc3N2)cc1C` (stereo not drawn), the T/C was 104 % of control and 111 % of control under setting [1]; 103 % of control and 112 % of control under setting [2]; 109 % of control (dose: 172.0 mg/kg/injection, schedule: Q01DX005 (ip), vehicle: Klucel (hydroxypropylcellulose) (HPC)); 112 % of control and 121 % of control under setting [3]; 118 % of control (dose: 288.0 mg/kg/injection, schedule: Q01DX005 (ip), vehicle: Klucel (hydroxypropylcellulose) (HPC)); 117 % of control (dose: 800.0 mg/kg/injection, schedule: Q01DX005 (ip), vehicle: Klucel (hydroxypropylcellulose) (HPC)). Where the note is “dose: 1333.0 mg/kg/injection, schedule: Q01DX005 (ip), vehicle: Klucel (hydroxypropylcellulose) (HPC)”, the T/C was 160 % of control.

In the case of `COC(=N)N(C)/N=C/c1ccccc1`, the T/C reads like this: (dose: 100.0 mg/kg/injection, schedule: Q01DX001 (ip), vehicle: Klucel (hydroxypropylcellulose) (HPC)) 114 % of control; (dose: 200.0 mg/kg/injection, schedule: Q01DX001 (ip), vehicle: Klucel (hydroxypropylcellulose) (HPC)) 115 % of control.

Consider `CCC(Br)C1C/C=C\CC2OC(C=C=CBr)CC2O1` (stereo not drawn), for which the T/C reads like this: under setting [7], 100 % of control; (dose: 3.75 mg/kg/injection, schedule: Q01DX001 (ip), vehicle: Klucel (hydroxypropylcellulose) (HPC)) 94 % of control; (dose: 6.25 mg/kg/injection, schedule: Q01DX005 (ip), vehicle: Klucel (hydroxypropylcellulose) (HPC)) 95 % of control and 98 % of control; (dose: 7.5 mg/kg/injection, schedule: Q01DX001 (ip), vehicle: Klucel (hydroxypropylcellulose) (HPC)) 90 % of control; under setting [5], 95 % of control and 104 % of control; (dose: 15.0 mg/kg/injection, schedule: Q01DX001 (ip), vehicle: Klucel (hydroxypropylcellulose) (HPC)) 91 % of control. In addition, the T/C under setting [6] was 91 % of control and 100 % of control; the T/C (dose: 30.0 mg/kg/injection, schedule: Q01DX001 (ip), vehicle: Klucel (hydroxypropylcellulose) (HPC)) is 91 % of control; the T/C under setting [1] was 98 % of control; the T/C under setting [2] is 96 % of control.

In the case of `Clc1nc(SC2=NCCN2)c2[nH]cnc2n1`, the T/C reads like this: (dose: 5.0 mg/kg/injection, schedule: Q01DX009 (ip), vehicle: saline with Tween-80) 100 % of control and 92 % of control; (dose: 10.0 mg/kg/injection, schedule: Q01DX009 (ip), vehicle: saline with Tween-80) 104 % of control and 113 % of control; (dose: 20.0 mg/kg/injection, schedule: Q01DX009 (ip), vehicle: saline with Tween-80) 105 % of control; (dose: 40.0 mg/kg/injection, schedule: Q01DX009 (ip), vehicle: saline with Tween-80) 100 % of control.

`O=c1oc2ccccc2n1P(=O)(N1CCOCC1)N1CCOCC1`: the T/C by setting is: under setting [8], 100 % of control; (dose: 100.0 mg/kg/injection, schedule: Q01DX009 (ip), vehicle: saline) 98 % of control; under setting [9], 95 % of control.

For the compound `COP(=S)(OC)SCc1cc(=O)n2c(C)cccc2n1`, the T/C (dose: 6.25 mg/kg/injection, schedule: Q01DX005 (ip), vehicle: distilled water + alcohol) is 102 % of control; the T/C (dose: 12.5 mg/kg/injection, schedule: Q01DX005 (ip), vehicle: distilled water + alcohol) was 100 % of control; the T/C (dose: 25.0 mg/kg/injection, schedule: Q01DX005 (ip), vehicle: distilled water + alcohol) is 102 % of control.

For `O=C(NCc1cccnc1)Nc1cccc2c(NC(=O)NCc3cccnc3)cccc12`, the T/C reads like this: (dose: 60.0 mg/kg/injection, schedule: Q01DX005 (ip), vehicle: saline with Tween-80) 91 % of control; (dose: 120.0 mg/kg/injection, schedule: Q01DX005 (ip), vehicle: saline with Tween-80) 86 % of control; (dose: 240.0 mg/kg/injection, schedule: Q01DX005 (ip), vehicle: saline with Tween-80) 86 % of control.

In the case of `C=C(CC(=O)O)C(N)C(=O)O` (stereo not drawn), the T/C is 104 % of control (dose: 60.0 mg/kg/injection, schedule: Q01DX005 (ip), vehicle: Klucel (hydroxypropylcellulose) (HPC)); 100 % of control (dose: 120.0 mg/kg/injection, schedule: Q01DX005 (ip), vehicle: Klucel (hydroxypropylcellulose) (HPC)); 106 % of control (dose: 240.0 mg/kg/injection, schedule: Q01DX005 (ip), vehicle: Klucel (hydroxypropylcellulose) (HPC)).

As for `[N-]=[N+]=C1N=Nc2ccccc21`, the T/C is 99 % of control (dose: 0.78 mg/kg/injection, schedule: Q01DX005 (ip), vehicle: Klucel (hydroxypropylcellulose) (HPC)); 107 % of control (dose: 1.56 mg/kg/injection, schedule: Q01DX005 (ip), vehicle: Klucel (hydroxypropylcellulose) (HPC)); 107 % of control under setting [7].

Consider `O=c1c2cc(F)ccc2nnn1-c1ccccc1`, for which the T/C is 88 % of control (dose: 12.5 mg/kg/injection, schedule: Q01DX009 (ip), vehicle: suspension in saline); 98 % of control (dose: 25.0 mg/kg/injection, schedule: Q01DX009 (ip), vehicle: suspension in saline); 86 % of control under setting [8]; 107 % of control (dose: 50.0 mg/kg/injection, schedule: Q01DX009 (ip), vehicle: suspension in saline); 90 % of control under setting [9].

`O=[N+]([O-])c1ccc(N/N=C(\CO)c2ccccc2)c([N+](=O)[O-])c1`: the T/C is 100 % of control (dose: 50.0 mg/kg/injection, schedule: Q04DX003 (ip), vehicle: saline with Tween-80); 104 % of control (dose: 100.0 mg/kg/injection, schedule: Q04DX003 (ip), vehicle: saline with Tween-80); 100 % of control (dose: 200.0 mg/kg/injection, schedule: Q04DX003 (ip), vehicle: saline with Tween-80).

In the case of `CCN(CC)CCC[Si]1(C)c2ccccc2CCc2ccccc21`, the T/C (dose: 25.0 mg/kg/injection, schedule: Q04DX003 (ip), vehicle: saline) was 111 % of control; the T/C (dose: 50.0 mg/kg/injection, schedule: Q04DX003 (ip), vehicle: saline) was 102 % of control; the T/C (dose: 100.0 mg/kg/injection, schedule: Q04DX003 (ip), vehicle: saline) is 92 % of control.

`O=S(=O)(O)CCCNC(CO)(CO)CO`: the T/C by setting is: (dose: 60.0 mg/kg/injection, schedule: Q01DX005 (ip), vehicle: saline) 106 % of control; (dose: 120.0 mg/kg/injection, schedule: Q01DX005 (ip), vehicle: saline) 107 % of control; (dose: 240.0 mg/kg/injection, schedule: Q01DX005 (ip), vehicle: saline) 107 % of control.
